# Tested on: HCoV-229E
# Assay: HCoV-229E-Luc infection inhibition luciferase assay
# Format: cell-based
row,Structure (SMILES),HCoV-229E infection with entry inhibitor
1,CCOC(=O)[C@H]1O[C@@H]1C(=O)N[C@@H](CC(C)C)C(=O)NCCC(C)C [E64D],specifically inhibited HCoV-229E infection
2,CN(C)C(=O)COC(=O)Cc1ccc(OC(=O)c2ccc(NC(=N)N)cc2)cc1 [Camostat],inhibited infection

# Reference: PMC8846325, “A Photoactivable Natural Product with Broad Antiviral Activity against Enveloped Viruses, Including Highly Pathogenic Coronaviruses” (Antimicrobial Agents and Chemotherapy, 2022)
